pEC50: −log10 of the molar value.
Biological target: T1, WT/R232 STING protein (Homo sapiens, UniProt Q86WV6, H232R)
T1 construct: host or cells: HEK293T
Assay: Luciferase reporter assay in HEK293T-hSTING-Luciferase cells, WT/R232
Type: cell-based
Settings: 20 hr stimulation, read-out: R232 Activity (EC50 range)
Source text: • a) Stable STING expressing cells—Stable HEK293T STING-expressing cell lines were generated using plasmids purchased from Invivogen, Calif., USA, that contain STING cDNA cloned into the pUNO-1 vector under hEF1-HTLV promoter and containing the Blasticidin selection cassette. The plasmids hSTING(R232), hSTING(H232), hSTING(HAQ) were directly procured from Invivogen while hSTING (AQ) and hSTING (Q) were derived from hSTING(HAQ) and hSTING (R232) plasmids respectively by using a PCR based site directed mutagenesis method. These vectors were individually transfected into HEK293T cells using Lipofectamine (Invitrogen) and transfected cells were selected under Blasticidin selection. These transfected cells were further subjected to clonal selection using the limiting dilution method to obtain clonally pure populations of HEK cells transfected with each of the above mentioned human STING variants. Only those clones were selected in which ligand independent activation of STING was minimal. • b) Stable Luciferase reporter gene expressing cells—Stable HEK293T Luciferase reporter gene expressing cell lines were generated using pCDNA4 plasmids under an IRF-inducible promoter. This promoter is comprised of five tandem interferon-stimulated response elements (ISRE) fused to an ISG54 minimal promoter. This vector was transfected into HEK293T cells using Lipofectamine (Invitrogen) and transfected cells were selected under Zeocin selection. These transfected cells were further subjected to clonal selection using the limiting dilution method to obtain clonally pure populations of HEK cells transfected the Luciferase reporter construct. Only those clones were selected in which ligand independent induction of luciferase was minimal.
5×10^5 clonally selected HEK293T-hSTING-Luciferase cells were seeded in 384-well plates in growth medium and stimulated with novel compounds. After 20 hr of stimulation supernatant were removed and secretary reporter gene activity were measured using the Quanti-Luc detection system (Invivogen) on a Spectramax i3X luminometer.
All compounds were first tested in a primary screen using WT/R232 STING protein to obtain a ‘fold-induction’ over baseline levels of protein activity.

T1 sequence (Q86WV6 whole entry H232R): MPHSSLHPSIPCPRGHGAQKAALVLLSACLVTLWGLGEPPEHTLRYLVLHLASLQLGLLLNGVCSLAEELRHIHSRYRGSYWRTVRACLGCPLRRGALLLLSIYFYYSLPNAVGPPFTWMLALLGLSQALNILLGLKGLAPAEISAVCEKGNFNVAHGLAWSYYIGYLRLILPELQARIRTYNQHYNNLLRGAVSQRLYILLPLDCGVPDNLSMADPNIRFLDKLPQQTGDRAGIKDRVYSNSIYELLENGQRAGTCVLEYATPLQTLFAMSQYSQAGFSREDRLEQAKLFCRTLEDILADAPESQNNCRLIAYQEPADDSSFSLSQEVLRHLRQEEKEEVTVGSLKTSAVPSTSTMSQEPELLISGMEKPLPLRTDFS

SMILES	pEC50
O=C(NCc1ccco1)c1cc(C2CC2)c2c(c1)N(Cc1ccccc1F)C(=O)CS2 [Example 227]	< 5.00
Cc1cc(CN2C(=O)CSc3ccc(C(=O)NCc4ccco4)cc32)no1 [Example 85, N-(furan-2-ylmethyl)-4-((5-methylisoxazol-3-yl)methyl)-3-oxo-3,4-dihydro-2H-benzo[b-1,4]thiazine-6-carboxamide]	< 5.00
CC1Oc2ncc(C(=O)NCc3c(F)cc(F)cc3F)cc2N(Cc2cc(F)cc(F)c2)C1=O (stereo not drawn) [Example 240, 1-(3,5-difluorobenzyl)-3-methyl-2-oxo-N-(2,4,6-trifluorobenzyl)-2,3-dihydro-1H-pyrido[2,3-b-1,4]oxazine-7-carboxamide]	5.00 to 6.00
Cc1cccc(C)c1CN1C(=O)CSc2ccc(C(=O)NCc3ccco3)cc21 [Example 13, 4-(2,6-dimethyl-benzyl)-N-(furan-2-ylmethyl)-3-oxo-3,4-dihydro-2H-benzo[b-1,4]thiazine-6-carboxamide]	5.00 to 6.00
CC1Sc2ccc(C(=O)NCc3c(F)cc(F)cc3F)nc2N(Cc2cc(F)cc(F)c2)C1=O (stereo not drawn) [Example 185, 4-(3,5-difluorobenzyl)-2-methyl-3-oxo-N-(2,4,6-trifluorobenzyl)-3,4-dihydro-2H-pyrido[3,2-b-1,4]thiazine-6-carboxamide]	5.00 to 6.00
CC1Oc2ncc(C(=O)NCc3cccc(C(F)(F)F)c3)cc2N(Cc2c(F)cccc2Cl)C1=O (stereo not drawn) [Example 244, 1-(2-chloro-6-fluorobenzyl)-3-methyl-2-oxo-N-(3-(trifluoromethyl)benzyl)-2,3-dihydro-1H-pyrido[2,3-b][1,4]oxazine-7-carboxamide]	< 5.00
O=C(NCC1CCN(c2ccccc2)CC1)c1ccc2c(c1)N(Cc1ccccc1F)C(=O)CS2 [Example 45, 4-(2-fluorobenzyl)-3-oxo-N-((1-phenyl-piperidin-4-yl)methyl)-3,4-dihydro-2H-benzo[b][1,4] thiazine-6-carboxamide]	< 5.00
Cc1ccc(CNC(=O)c2cnc3c(c2)N(Cc2cc(F)cc(F)c2)C(=O)C(C)(CO)S3)o1 (stereo not drawn) [Example 209, 1-(3,5-difluorobenzyl)-3-(hydroxymethyl)-3-methyl-N-((5-methylfuran-2-yl)methyl)-2-oxo-2,3-dihydro-1H-pyrido [2,3-b] [1,4]thiazine-7-carboxamide]	< 5.00
O=C(NCc1ccco1)c1ccc2c(c1)N(CCc1cccc(Cl)c1)C(=O)CS2 [Example 90, 4-(3-chlorophenethyl)-N-(furan-2-ylmethyl)-3-oxo-3,4-dihydro-2H-benzo[b-1,4]thiazine-6-carboxamide]	< 5.00
O=C(NCc1cccc(Cl)c1Cl)c1ccc2c(c1)N(Cc1ccccc1)C(=O)CS2 [Example 55, 4-benzyl-N-(2,3-dichlorobenzyl)-3-oxo-3,4-dihydro-2H-benzo[b-1,4]thiazine-6-carboxamide]	< 5.00
Cc1cnc(CNC(=O)c2ccc3c(c2)N(Cc2ccccc2)C(=O)CS3)s1 [Example 64, 4-benzyl-N-((5-methylthiazol-2-yl)methyl)-3-oxo-3,4-dihydro-2H-benzo[b-1,4]thiazine-6-carboxamide]	< 5.00
O=C(NCc1cccc(F)c1)c1ccc2c(c1)N(Cc1c(F)cccc1Cl)C(=O)CS2 [Example 38, 4-(2-chloro-6-fluorobenzyl)-N-(3-fluorobenzyl)-3-oxo-3,4-dihydro-2H-benzo[b-1,4]thiazine-6-carboxamide]	5.00 to 6.00
O=C(NCc1ccco1)c1ccc2c(c1)N(Cc1c(F)cccc1Cl)C(=O)C[S+]2[O-] (stereo not drawn) [Example 245, 4-(2-chloro-6-fluorobenzyl)-N-(furan-2-ylmethyl)-3-oxo-3,4-dihydro-2H-benzo[b][1,4]thiazine-6-carboxamide 1-oxide]	< 5.00
CC1CN(C(=O)Cc2ccccc2)c2cc(C(=O)NCc3c(F)cc(F)cc3F)ccc2S1 (stereo not drawn) [Example 259, 2-methyl-4-(2-phenylacetyl)-N-(2,4,6-trifluorobenzyl)-3,4-dihydro-2H-benzo[b][1,4]thiazine-6-carboxamide]	< 5.00
O=C(NCC1CCCN(c2ccccc2)C1)c1ccc2c(c1)N(Cc1ccccc1F)C(=O)CS2 (stereo not drawn) [Example 49, 4-(2-fluorobenzyl)-3-oxo-N-((1-phenyl-piperidin-3-yl)methyl)-3,4-dihydro-2H benzo[b][1,4] thiazine-6-carboxamide]	< 5.00
O=C(NCc1cccc2ccccc12)c1ccc2c(c1)N(Cc1ccccc1F)C(=O)CS2 [Example 26, 4-(2-fluorobenzyl)-N-(naphthalen-1-ylmethyl)-3-oxo-3,4-dihydro-2H-benzo[b-1,4]thiazine-6-carboxamide]	< 5.00
NCCC1Sc2ccc(C(=O)NCc3ccc(F)cc3F)cc2N(Cc2cc(F)cc(F)c2)C1=O (stereo not drawn) [Example 166, 2-(2-aminoethyl)-N-(2,4-difluorobenzyl)-4-(3,5-difluorobenzyl)-3-oxo-3,4-dihydro-2H-benzo[b] [1,4]thiazine-6-carboxamide]	< 5.00
CC1(O)Sc2ccc(C(=O)NCc3c(F)cc(F)cc3F)cc2N(Cc2c(F)cccc2Cl)C1=O (stereo not drawn) [Example 164, 4-(2-chloro-6-fluorobenzyl)-2-hydroxy-2-methyl-3-oxo-N-(2,4,6-trifluorobenzyl)-3,4-dihydro-2H-benzo[b][1,4] thiazine-6-carboxamide]	5.00 to 6.00
CC1Sc2ccc(C(=O)NCc3ccco3)cc2N(Cc2ccccc2)C1=O (stereo not drawn) [Example 134, 4-benzyl-N-(furan-2-ylmethyl)-2-methyl-3-oxo-3,4-dihydro-2H-benzo[b-1,4]thiazine-6-carboxamide]	5.00 to 6.00
C[C@H]1Oc2ncc(C(=O)NCc3c(F)cc(F)cc3F)cc2N(Cc2cc(F)cc(F)c2)C1=O [Example 238, (R)-1-(3,5-difluorobenzyl)-3-methyl-2-oxo-N-(2,4,6-trifluorobenzyl)-2,3-dihydro-1H-pyrido[2,3-b-1,4]oxazine-7-carboxamide]	5.00 to 6.00
O=C(NCc1ccc(F)cc1)c1ccc2c(c1)N(Cc1ccccc1Cl)C(=O)CS2 [Example 122, 4-(2-chlorobenzyl)-N-(4-fluorobenzyl)-3-oxo-3,4-dihydro-2H-benzo[b-1,4]thiazine-6-carboxamide]	5.00 to 6.00
CC1Sc2ncc(C(=O)NCc3ccn(C)n3)cc2N(Cc2cc(F)cc(F)c2)C1=O (stereo not drawn) [Example 215, 1-(3,5-difluorobenzyl)-3-methyl-N-((1-methyl-1H-pyrazol-3-yl)methyl)-2-oxo-2,3-dihydro-1H-pyrido[2,3-b][1,4]thiazine-7-carboxamide]	< 5.00
NC(=O)CC1Sc2ccc(C(=O)NCc3ccc(F)cc3F)cc2N(Cc2cc(F)cc(F)c2)C1=O (stereo not drawn) [Example 176, 2-(2-amino-2-oxoethyl)-N-(2,4-difluorobenzyl)-4-(3,5-difluorobenzyl)-3-oxo-3,4-dihydro-2H-benzo[b] [1,4]thiazine-6-carboxamide]	< 5.00
NC(=O)c1cc(C(=O)NCc2c(F)cc(F)cc2F)cc2c1SCC(=O)N2Cc1ccc(F)cc1 [Example 225, 4-(4-fluorobenzyl)-3-oxo-N6-(2,4,6-trifluorobenzyl)-3,4-dihydro-2H-benzo[b][1,4] thiazine-6,8-dicarboxamide]	< 5.00
O=C(NCc1ccco1)c1ccc2c(c1)N(Cc1ccc(Cl)s1)C(=O)CS2 [Example 95, 4-((5-chlorothiophen-2-yl)methyl)-N-(furan-2-ylmethyl)-3-oxo-3,4-dihydro-2H-benzo[b-1,4]thiazine-6-carboxamide]	< 5.00
C[C@@H]1Oc2ncc(C(=O)NCc3cc4ccccc4o3)cc2N(Cc2cc(F)cc(F)c2)C1=O [Example 241, (S)-N-(benzofuran-2-ylmethyl)-1-(3,5-difluorobenzyl)-3-methyl-2-oxo-2,3-dihydro-1H-pyrido[2,3-b][1,4]oxazine-7-carboxamide]	5.00 to 6.00
Cc1nc(CNC(=O)c2ccc3c(c2)N(Cc2ccccc2)C(=O)CS3)cs1 [Example 77, 4-benzyl-N-((2-methylthiazol-4-yl)methyl)-3-oxo-3,4-dihydro-2H-benzo[b-1,4]thiazine-6-carboxamide]	< 5.00
CS(=O)(=O)NCCC1Sc2ccc(C(=O)NCc3c(F)cc(F)cc3F)cc2N(Cc2cc(F)cc(F)c2)C1=O (stereo not drawn) [Example 170, 4-(3,5-difluorobenzyl)-2-(2-(methyl-sulfonamido)ethyl)-3-oxo-N-(2,4,6-trifluorobenzyl)-3,4-dihydro-2H-benzo[b] [1,4]thiazine-6-carboxamide]	< 5.00
Cc1csc(CNC(=O)c2ccc3c(c2)N(Cc2ccccc2)C(=O)CS3)n1 [Example 65, 4-benzyl-N-((4-methylthiazol-2-yl)methyl)-3-oxo-3,4-dihydro-2H-benzo[b-1,4]thiazine-6-carboxamide]	< 5.00
O=C(NCc1ccco1)c1ccc2c(c1)N(Cc1ccccc1F)CCS2 [Example 247, 4-(2-fluorobenzyl)-N-(furan-2-ylmethyl)-3,4-dihydro-2H-benzo[b-1,4]thiazine-6-carboxamide]	< 5.00

From patent publication US20200138827A1, “SMALL MOLECULE MODULATORS OF HUMAN STING” (Curadev Pharma Limited, priority 2017, published 2020)
